Measurements as given in patent US3991210A, “Acetamidine urinary antiseptics” (The Dow Chemical Company, priority 1975, dated 1976).

Assays:
[1] = system: bacterial microorganisms which may infect the mammalian urinary system; assay: Urinary antiseptic activity (general statement); set-up: species or system mammals; settings: in vivo
[2] = Stability in comparison to the hydrochloride salt (general statement); assay type: physicochemical; settings: versus hydrochloride salt
[3] = Acute oral lethality (LD50) in mice; settings: mouse, in vivo
Protocol: Separate groups of mice are separately administered an aqueous composition containing 2-(4-bromophenyl)acetamidine hydrochloride. The compound is administered per os at various dosage rates, and the animals are held for 24 hours, after which deaths are recorded, and the LD50 (dosage lethal to 50 percent of the mice) is determined.

[4] = Toxicity / detrimental pharmacological effects (general statement); assay type: in vivo, mammals
Proteus mirabilis = Proteus mirabilis urinary tract infection in rats, bacterial count per kidney (Example 6); assay type: in vivo; settings: oral; for Mean Bacterial Count (number of organisms per kidney): three doses at 4, 28, 52 hours, 72 hours
Protocol: In a similar operation, a Proteus mirabilis urinary tract infection was established in rats using a similar surgical technique. In separate groups, the test compound 2-(4-bromophenyl)acetamidine p-toluene-sulfonate, or the reference compound nalidixic acid, were administered orally in three doses, 4, 28 and 52 hours after completion of the surgical technique used to establish the infection. Separate groups of rats were left untreated to serve as controls. After 72 hours, the animals were euthanized with carbon dioxide. The left kidney was removed, homogenized in 9 milliliters sterile saline solution, and fivefold dilutions of the resulting brei were made in brain-heart infusion broth. Bacterial counts in the dilutions were determined after 24 hours incubation at 37° C. The oral dose in milligrams per kilogram (mg/kg); millimoles per kilogram (mM); the number of animals in each group, and the base ten logarithm (Log10) of the bacterial count (number of organisms per kidney) are set out below.

[5] = Anorectic effect on repeated oral dosing in rats; assay type: in vivo; settings: 100 mg/kg per day

Cc1ccc(S(=O)(=O)O)cc1.N=C(N)Cc1ccc(Br)cc1 [2-(4-bromophenyl)acetamidine p-toluene-sulfonate]
urinary antiseptic activity [1]: high degree of urinary antiseptic activity | stability in comparison to the corresponding hydrochloride salt [2]: improved | LD50 at 24 h [3]: 2610 mg/kg | toxicity ([4]; in vivo): low toxicity | toxicity characteristics in comparison to the corresponding hydrochloride salt ([4]; versus hydrochloride salt): improved | Mean Bacterial Count (number of organisms per kidney) (Proteus mirabilis; 12.5 mg/kg): 7.49 Log10 | Mean Bacterial Count (number of organisms per kidney) (Proteus mirabilis; 25 mg/kg): 6.01 Log10 | Mean Bacterial Count (number of organisms per kidney) (Proteus mirabilis; 50 mg/kg): 4.23 Log10 | Mean Bacterial Count (number of organisms per kidney) (Proteus mirabilis; 100 mg/kg): 2.68 Log10 | reduction of bacterial counts relative to nalidixic acid, weight basis (Proteus mirabilis; equal dose of nalidixic acid on a weight basis): comparable to an equal dose of nalidixic acid, on a weight basis | effectiveness relative to nalidixic acid, molar basis (Proteus mirabilis; on a molar basis): more effective, on a molar basis, than nalidixic acid | anorectic effect, by the fourth week ([5]; by the fourth week of dosing): decreases and substantially disappears by the fourth week of dosing | anorectic effect, first week ([5]; during the first week): an anorectic effect is observed during the first week
